# ChEMBL document CHEMBL6083187, “Current status of the small molecule anti-HIV drugs in the pipeline or recently approved” (Bioorg Med Chem, 2024)
# How the values were obtained:
# [1] = system: Human immunodeficiency virus 1; test: Antiviral activity against HIV-1 NL4-3 infected in human MT2 cells assessed as reduction in viral replication; assay type: functional, organism-based; details: Human immunodeficiency virus 1, NL4-3, MT2
# [2] = system: Human immunodeficiency virus 2; test: Antiviral activity against HIV-2 ROD infected in human MT4 cells assessed as virus-induced cytopathic effect incubated for 5 days by MTT assay; assay type: functional, organism-based; details: Human immunodeficiency virus 2, ROD, MT4, 120 h
# [3] = molecular target: Structural capsid protein (Human immunodeficiency virus 1, UniProt Q76129); test: Inhibition of HIV-1 NL4-3 monomeric capsid protein
# [4] = Inhibition of Influenza A virus RdRp
# [5] = molecular target: T1, Human immunodeficiency virus type 1 integrase (Human immunodeficiency virus 1, UniProt Q7ZJM1); test: Inhibition of HIV-1 integrase strand transfer activity
# [6] = molecular target: Human immunodeficiency virus type 1 protease (Human immunodeficiency virus 1, UniProt Q72874); test: Inhibition of HIV-1 protease by fluorescence resonance energy transfer analysis
# [7] = molecular target: T2, Human immunodeficiency virus type 1 reverse transcriptase (Human immunodeficiency virus 1, UniProt Q72547); test: Inhibition of HIV-1 reverse transcriptase
# [8] = molecular target: T1, Human immunodeficiency virus type 1 integrase; test: Inhibition of HIV-1 BAL integrase strand transfer activity
# [9] = molecular target: T1, Human immunodeficiency virus type 1 integrase; test: Inhibition of HIV-1 NL4-3 integrase
# [10] = Half life in human at 40 mg by LC-MS/MS analysis; assay type: ADME; details: in vivo
# [11] = Tmax in human at 20 mg, po; assay type: ADME; details: in vivo
# [12] = Cmax in human at 40 mg, po; assay type: ADME; details: in vivo
# [13] = Half life in human at 20 mg by LC-MS/MS analysis; assay type: ADME; details: in vivo
# [14] = Tmax in human at 40 mg, po; assay type: ADME; details: in vivo
# [15] = Cmax in human at 20 mg, po; assay type: ADME; details: in vivo
# [16] = system: Human immunodeficiency virus 1; test: Antiviral activity against HIV1 subtype A clinical isolate UG275; assay type: functional, organism-based; details: Human immunodeficiency virus 1, UG275
# [17] = system: Human immunodeficiency virus 1; test: Antiviral activity against HIV-1; assay type: functional, organism-based
# [18] = molecular target: T2, Human immunodeficiency virus type 1 reverse transcriptase; test: Inhibition of HIV-1 NL4-3 reverse transcriptase
# [19] = molecular target: T2, Human immunodeficiency virus type 1 reverse transcriptase; test: Inhibition of wild type HIV-1 reverse transcriptase
# T1 sequence (Q7ZJM1 whole entry): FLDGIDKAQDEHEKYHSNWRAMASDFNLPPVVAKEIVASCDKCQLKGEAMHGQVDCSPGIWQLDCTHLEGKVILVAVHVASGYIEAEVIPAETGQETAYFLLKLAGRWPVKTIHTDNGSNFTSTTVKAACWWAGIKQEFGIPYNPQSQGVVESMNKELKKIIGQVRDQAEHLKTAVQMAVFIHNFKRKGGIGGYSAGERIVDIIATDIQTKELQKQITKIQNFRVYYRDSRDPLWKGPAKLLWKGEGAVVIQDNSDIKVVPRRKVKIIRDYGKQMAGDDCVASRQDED
# Chain of Structural capsid protein (Q76129 whole entry): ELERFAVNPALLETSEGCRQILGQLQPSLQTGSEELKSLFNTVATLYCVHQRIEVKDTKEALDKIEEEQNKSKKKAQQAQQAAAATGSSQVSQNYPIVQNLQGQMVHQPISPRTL
smiles,measurement,setting,value
C#C[C@]1(CO)C=C[C@@H](n2cc(C)c(=O)[nH]c2=O)O1,EC50,[1],450 nM
same,EC50,[2],30 nM
C=C(C)[C@@H]1CC[C@]2(NCCN3CCS(=O)(=O)CC3)CC[C@]3(C)[C@H](CC[C@@H]4[C@@]5(C)CC=C(c6ccc(C(=O)O)cc6)C(C)(C)[C@@H]5CC[C@]43C)[C@@H]12 [BMS-955176],IC50,[3],> 50000 nM
same,IC50,[4],> 100000 nM
same,IC50,[5],> 15000 nM
same,IC50,[6],> 10000 nM
same,IC50,[7],> 50000 nM
C[C@H]1CO[C@@H]2Cn3cc(C(=O)NCc4ccc(F)cc4F)c(=O)c(O)c3C(=O)N12 [CABOTEGRAVIR],IC50,[8],0.22 nM
same,IC50,[9],0.34 nM
CCC(=O)NS(=O)(=O)c1ccc(NC(=O)Cc2ccc(Br)c(Oc3cc(Cl)cc(C#N)c3)c2F)c(Cl)c1 [ELSULFAVIRINE],half-life,[10],2.6 h
same,Tmax,[11],1.1 h
same,Cmax,[12],10.8 ng/mL
same,half-life,[13],1.7 h
same,Tmax,[14],1.9 h
same,Cmax,[15],7.5 ng/mL
C=C(C)[C@@H]1CC[C@]2(NCCN3CCS(=O)(=O)CC3)CC[C@]3(C)[C@H](CC[C@@H]4[C@@]5(C)CC=C(C6=CC[C@@](CF)(C(=O)O)CC6)C(C)(C)[C@@H]5CC[C@]43C)[C@@H]12 [FIPRAVIRIMAT],EC50,[16],3.5 nM
same,EC50,[17],9 nM
Cc1cc(/C=C/C#N)cc(C)c1Nc1ccnc(Nc2ccc(C#N)cc2)n1 [RILPIVIRINE],IC50,[18],< 2 nM
same,IC50,[19],0.24 nM
